# Test results as given in ChEMBL document CHEMBL3885861, “Open TG-GATES”.
# Species on record: Rattus norvegicus
# Assay: Open TG-GATES - Regimen: Daily Repeat
# Format: toxicity, organism-based, Sprague-Dawley
# Parameters: regimen Daily Repeat, gender Male, age 6 weeks
# Conditions: in vivo, po, route gavage; for gamma-GTP / ALP / ALT / AST / BUN / CRE / Ca / Cl / DBIL / GLC / IP / K / LDH / Na / PL / RALB / TBIL / TC / TG / TP: tissue Plasma; for APTT / Bas / Eos / Fbg / Hb / Ht / Lym / MCH / MCHC / MCV / Mono / Neu / PT / Plat / RBC / Ret / WBC: tissue Blood; for KIDNEY_L / KIDNEY_R / KIDNEY_TOTAL: tissue Kidney; for LIVER: tissue Liver
# [1] = 300 mg/kg, 72 h, dose level Middle, time 3 day
# [2] = 300 mg/kg, […], dose level Middle, time 7 day
# [3] = 300 mg/kg, […], dose level Middle, time 14 day
# [4] = 300 mg/kg, […], dose level Middle, time 28 day
smiles,measurement,setting,value
COC(=O)C1=C(C)NC(C)=C(C(=O)OC)C1c1ccccc1[N+](=O)[O-] [NIFEDIPINE],gamma-GTP,"100 mg/kg, […], dose level Low, time 28 day",1 IU/L
same,TERMINAL_BW,[1],223.2 g
same,APTT,[1],18.7 s
same,Bas,[1],0.4%
same,Eos,[1],1%
same,Fbg,[1],277 mg/dL
same,Hb,[1],13.5 g/dL
same,Ht,[1],41.7%
same,Lym,[1],73%
same,MCH,[1],21.3 pg
same,MCHC,[1],32.3%
same,MCV,[1],66.1 fL
same,Mono,[1],3.6%
same,Neu,[1],21%
same,PT,[1],13.8 s
same,Plat,[1],123.7 x10_4/uL
same,RBC,[1],630.8 x10_4/ul
same,Ret,[1],10.7%
same,WBC,[1],113.4 x10_2/uL
same,KIDNEY_L,[1],0.9 g
same,KIDNEY_R,[1],0.9 g
same,KIDNEY_TOTAL,[1],1.9 g
same,LIVER,[1],11.7 g
same,ALP,[1],1580.8 IU/L
same,ALT,[1],48.2 IU/L
same,AST,[1],68.4 IU/L
same,BUN,[1],14.2 mg/dL
same,CRE,[1],0.2 mg/dL
same,Ca,[1],10.9 mg/dL
same,Cl,[1],107.2 meq/L
same,DBIL,[1],0.018 mg/dL
same,GLC,[1],165.8 mg/dL
same,IP,[1],7.1 mg/dL
same,K,[1],4 meq/L
same,LDH,[1],84.2 IU/L
same,Na,[1],144.4 meq/L
same,PL,[1],159.2 mg/dL
same,RALB,[1],2.6 g/dL
same,TBIL,[1],0.03 mg/dL
same,TC,[1],89.4 mg/dL
same,TG,[1],94.2 mg/dL
same,TP,[1],5.6 g/dL
same,gamma-GTP,[1],1 IU/L
same,TERMINAL_BW,[2],254 g
same,TERMINAL_BW,[3],319.9 g
same,TERMINAL_BW,[4],380.8 g
same,APTT,[2],15.7 s
same,Bas,[2],0.2%
same,Eos,[2],1%
same,Fbg,[2],292.6 mg/dL
same,Hb,[2],13.9 g/dL
same,Ht,[2],42.7%
same,Lym,[2],69.4%
same,MCH,[2],20.7 pg
same,MCHC,[2],32.6%
same,MCV,[2],63.6 fL
same,Mono,[2],3%
same,Neu,[2],26%
same,PT,[2],13.6 s
same,Plat,[2],128.9 x10_4/uL
same,RBC,[2],671 x10_4/ul
same,Ret,[2],6.2%
same,WBC,[2],113.1 x10_2/uL
same,APTT,[3],19 s
same,Bas,[3],0%
same,Eos,[3],1%
same,Fbg,[3],281.4 mg/dL
same,Hb,[3],14.8 g/dL
same,Ht,[3],44.7%
same,Lym,[3],74.8%
same,MCH,[3],20.6 pg
same,MCHC,[3],33.2%
same,MCV,[3],62.1 fL
same,Mono,[3],3%
same,Neu,[3],20%
same,PT,[3],14 s
same,Plat,[3],117.6 x10_4/uL
same,RBC,[3],719 x10_4/ul
same,Ret,[3],4.9%
same,WBC,[3],97.5 x10_2/uL
same,APTT,[4],18.7 s
same,Bas,[4],0.4%
same,Eos,[4],1%
same,Fbg,[4],277 mg/dL
same,Hb,[4],13.5 g/dL
same,Ht,[4],41.7%
same,Lym,[4],73%
same,MCH,[4],21.3 pg
same,MCHC,[4],32.3%
same,MCV,[4],66.1 fL
same,Mono,[4],3.6%
same,Neu,[4],21%
same,PT,[4],13.8 s
same,Plat,[4],123.7 x10_4/uL
same,RBC,[4],630.8 x10_4/ul
same,Ret,[4],10.7%
same,WBC,[4],113.4 x10_2/uL
same,KIDNEY_L,[2],1 g
same,KIDNEY_R,[2],1 g
same,KIDNEY_TOTAL,[2],2 g
same,KIDNEY_L,[3],1.2 g
same,KIDNEY_R,[3],1.2 g
same,KIDNEY_TOTAL,[3],2.3 g
same,KIDNEY_L,[4],1.3 g
same,KIDNEY_R,[4],1.2 g
same,KIDNEY_TOTAL,[4],2.5 g
same,LIVER,[2],12.8 g
same,LIVER,[3],14.9 g
same,LIVER,[4],15.8 g
same,ALP,[2],1439.4 IU/L
same,ALT,[2],43.8 IU/L
same,AST,[2],68.6 IU/L
same,BUN,[2],15.4 mg/dL
same,CRE,[2],0.2 mg/dL
same,Ca,[2],10.8 mg/dL
same,Cl,[2],107.6 meq/L
same,DBIL,[2],0.012 mg/dL
same,GLC,[2],167 mg/dL
same,IP,[2],7 mg/dL
same,K,[2],3.9 meq/L
same,Na,[2],145.6 meq/L
same,PL,[2],154.4 mg/dL
same,RALB,[2],2.8 g/dL
same,TBIL,[2],0.022 mg/dL
same,TC,[2],83.4 mg/dL
same,TG,[2],102 mg/dL
same,TP,[2],5.9 g/dL
same,gamma-GTP,[2],1 IU/L
same,ALP,[3],1236.4 IU/L
same,ALT,[3],47.6 IU/L
same,AST,[3],69.4 IU/L
same,BUN,[3],18.2 mg/dL
same,CRE,[3],0.2 mg/dL
same,Ca,[3],10.9 mg/dL
same,Cl,[3],107.6 meq/L
same,DBIL,[3],0.012 mg/dL
same,GLC,[3],172.6 mg/dL
same,IP,[3],7 mg/dL
same,K,[3],4.2 meq/L
same,LDH,[3],48 IU/L
same,Na,[3],143.8 meq/L
same,PL,[3],150 mg/dL
same,RALB,[3],2.7 g/dL
same,TBIL,[3],0.018 mg/dL
same,TC,[3],79.6 mg/dL
same,TG,[3],115.8 mg/dL
same,TP,[3],5.8 g/dL
same,gamma-GTP,[3],1 IU/L
same,ALP,[4],1129.6 IU/L
same,ALT,[4],40 IU/L
same,AST,[4],73.8 IU/L
same,BUN,[4],17.8 mg/dL
same,CRE,[4],0.3 mg/dL
same,Ca,[4],10.3 mg/dL
same,Cl,[4],106.6 meq/L
same,DBIL,[4],0.012 mg/dL
same,GLC,[4],165 mg/dL
same,IP,[4],5.7 mg/dL
same,K,[4],3.8 meq/L
same,LDH,[4],56.2 IU/L
same,Na,[4],143.8 meq/L
same,PL,[4],146 mg/dL
same,RALB,[4],2.7 g/dL
same,TBIL,[4],0.026 mg/dL
same,TC,[4],73 mg/dL
same,TG,[4],126.8 mg/dL
